Experimental data reported in paper PMC10135964, “One Scaffold, Two Conformations: The Ring-Flip of the Messenger InsP8 Occurs under Cytosolic Conditions” (Biomolecules, 2023).
Like-named read-outs stand apart in the source and are kept apart here. Blank lines part the entries; values can stand above or below the molecule they belong to.

Experiments:
[1] = 1H,13C BIRD-HMQC NMR quantification of axial vs. equatorial conformer; type: physicochemical; conditions: 50 µM, 130 mM KCl, 10 mM NaCl, 4 °C
Procedure: Samples for HMQC-NMR studies contained 50 µM ^13C6-labeled InsPs (InsP6/5PP-InsP5/InsP8), 2 mM bis-tris-propane, 130 mM KCl, 10 mM NaCl and 0/50/250 µM MgCl2 in D2O.
BIRD-HMQC NMR spectra were recorded at 277 K and 600 MHz (^1H frequency) on a Bruker AV-III NMR spectrometer (Bruker Biospin, Rheinstetten, Germany) using cryogenically cooled 5 mm QCI-triple resonance probe equipped with one-axis self-shielded gradients. The spectrometer was operated using topspin 3.5 pl6 software. Instrument temperature was calibrated against […] according to Findeisen et al.. Acquisition parameters were SW(^13C): 60–90 ppm, NS: 128, TD(^13C): 64.
BIRD-HMQC spectra were recorded at 277 K as described above, with samples containing 200 µM InsPs, 130 mM KCl, 10 mM NaCl, 2mM BTP in D2O. pH was set to pH* 9.5 for InsP6, pH* 8.8 for 5PP-InsP5 and pH* 8.5 for InsP8 (pH = 0.929 × pH* + 0.42 [35]). NOESY-HMQC spectra of the same samples were subsequently recorded using mixing times of 80 ms for InsP6 and 5PP-InsP5 and 200 ms for InsP8. Conformational exchange on the time-scale of the experiment created cross-peaks between corresponding peaks in different conformations, which allowed us to assign each peak of the equatorial conformer to its axial counterpart.

[2] = as above; type: physicochemical; conditions: pH* 8.5, 5 equiv. Ca2+, 130 mM KCl, 10 mM NaCl
[3] = parameters: method as in PMID 27460418, PMID 15708805, doi:10.1016/j.molstruc.2007.03.035; conditions: 31P NMR (22 °C); equation as printed refers to InsP8 complexes; cited from earlier work
[4] = parameters: method as in PMID 27460418, PMID 15708805, doi:10.1016/j.molstruc.2007.03.035; conditions: Potentiometry (37 °C); equation as printed refers to InsP8 complexes; cited from earlier work
[5] = parameters: method as in doi:10.1351/pac199163071015; conditions: 150 mM NaCl, 37 °C; cited from earlier work
[6] = pH* 9.5, without divalent cations

proportion in axial conformation ([1]; pH* 8.5 (=pH 8.3) and higher, 5 equiv. Mg2+): exclusively the axial conformation
proportion in axial conformation ([1]; pH* 8.5, without divalent cations): about 10%
proportion in axial conformation [1, 6]: only detected in the axial conformation
proportion in axial conformation [2]: About 60%
SMILES: O=P(O)(O)O[C@H]1[C@@H](OP(=O)(O)O)[C@H](OP(=O)(O)O)[C@@H](OP(=O)(O)OP(=O)(O)O)[C@H](OP(=O)(O)O)[C@H]1OP(=O)(O)O [5PP-InsP5]

SMILES: O=P(O)(O)CP(=O)(O)O[C@H]1[C@H](OP(=O)(O)O)[C@@H](OP(=O)(O)O)[C@@H](OP(=O)(O)O)[C@@H](OP(=O)(O)O)[C@@H]1OP(=O)(O)O [5PCP-InsP5]
log K, 2 K^+ + H5L^9− ↔ [K2(H5L)]^7− [3]: 2.79(7)
log K, 3 K^+ + H4L^10− ↔ [K3(H4L)]^7− [3]: 3.94(4)
log K, 4 K^+ + H2L^12− ↔ [K4(H2L)]^8− [3]: 4.61(3)
log K, 4 K^+ + H3L^11− ↔ [K4(H3L)]^7− [3]: 4.50(5)
log K, 5 K^+ + HL^13− ↔ [K5(HL)]^8− [3]: 6.57(3)
log K, L^14− + 2 H^+ ↔ H2L^12− [3]: 22.42(2)
log K, L^14− + 3 H^+ ↔ H3L^11− [3]: 32.26(2)
log K, L^14− + 4 H^+ ↔ H4L^10− [3]: 40.94(2)
log K, L^14− + 5 H^+ ↔ H5L^9− [3]: 47.67(2)
log K, L^14− + 6 H^+ ↔ H6L^8− [3]: 51.93(2)
log K, L^14− + 7 H^+ ↔ H7L^7− [3]: 55.64(2)
log K, L^14− + H^+ ↔ HL^13− [3]: 11.48(1)
log K, Mg^2+ + H2L^12− + 3 K^+ ↔ [MgK3(H2L)]^7− [3]: 9.75(7)
log K, Mg^2+ + H4L^10− + 2 K^+ ↔ [MgK2(H4L)]^6− [3]: 6.96(7)
log K, Mg^2+ + H5L^9− + K^+ ↔ [MgK(H5L)]^6− [3]: 5.26(7)
log K, Mg^2+ + H6L^8− ↔ [Mg(H6L)]^6− [3]: 4.71(7)
log K, Mg^2+ + HL^13− + 4 K^+ ↔ [MgK4(HL)]^7− [3]: 11.64(5)

proportion in axial conformation ([1]; pH* 9.0, 1 equiv. Mg2+): about 30%
proportion in axial conformation ([1]; pH* 9.0, without divalent cations): traces
proportion in axial conformation ([1]; pH* 9.5, 1 equiv. Mg2+): ~90%
proportion in axial conformation [1, 6]: less than half
SMILES: O=P(O)(O)O[C@H]1[C@H](OP(=O)(O)O)[C@@H](OP(=O)(O)O)[C@H](OP(=O)(O)O)[C@@H](OP(=O)(O)O)[C@H]1OP(=O)(O)O [InsP6]
log K, 3 K^+ + H4L^10− ↔ [K3(H4L)]^7− [4]: 3.36(5)
log K, 4 K^+ + H3L^11− ↔ [K4(H3L)]^7− [4]: 5.42(5)
log K, L^14− + 2 H^+ ↔ H2L^12− [4]: 21.3(1)
log K, L^14− + 3 H^+ ↔ H3L^11− [4]: 31.63(6)
log K, L^14− + 4 H^+ ↔ H4L^10− [4]: 40.42(6)
log K, L^14− + 5 H^+ ↔ H5L^9− [4]: 47.32(6)
log K, L^14− + 6 H^+ ↔ H6L^8− [4]: 53.04(7)
log K, L^14− + 7 H^+ ↔ H7L^7− [4]: 56.14(9)
log K, L^14− + H^+ ↔ HL^13− [4]: 10.8(1)

SMILES: Nc1ncnc2c1ncn2[C@@H]1O[C@H](COP(=O)(O)OP(=O)(O)OP(=O)(O)O)[C@@H](O)[C@H]1O [ATP]
log(K), Mg^2+ + ATP^4− → [MgATP]^2− [5]: 4.34
log(K), Mg^2+ + HATP^3− → [Mg(HATP)]^− [5]: 2.39
